# Experimental data from ChEMBL document CHEMBL1145819 (J Med Chem, 2003).
# Values joined by “and” are separate entries in the source; they are usually repeats but may differ in a detail not shown here. Equal entries are not always repeated.
# Assays:
# [1] = target: T1, 5-hydroxytryptamine receptor 7 (Homo sapiens, UniProt P34969); experiment: Binding affinity towards human 5-hydroxytryptamine 7 receptor
# [2] = target: 5-hydroxytryptamine receptor 7 (Rattus norvegicus, UniProt P32305); experiment: Binding affinity towards rat 5-hydroxytryptamine 7 receptor
# [3] = target: T2, 5-hydroxytryptamine receptor 6 (Homo sapiens, UniProt P50406)
# [4] = target: T3, 5-hydroxytryptamine receptor 5A (Homo sapiens, UniProt P47898); experiment: Binding affinity towards human 5-hydroxytryptamine 5A receptor was evaluated using [3H]-5-CT as radioligand
# [5] = target: T2, 5-hydroxytryptamine receptor 6; experiment: Binding affinity towards human 5-hydroxytryptamine 6 receptor was evaluated using [3H]-LSD as radioligand
# [6] = target: Serotonin 2 (5-HT2) receptor (Homo sapiens, UniProt P41595+P28223+P28335); experiment: Binding affinity towards 5-HT2 receptor; format: protein assay
# [7] = target: T3, 5-hydroxytryptamine receptor 5A; experiment: Binding affinity towards human 5-hydroxytryptamine 5A receptor
# [8] = target: T1, 5-hydroxytryptamine receptor 7
# [9] = target: T2, 5-hydroxytryptamine receptor 6; experiment: Antagonistic activity towards 5-hydroxytryptamine 6 receptor was evaluated in cAMP assay; format: functional
# [10] = target: T4, 5-hydroxytryptamine receptor 3A (Homo sapiens, UniProt P46098); experiment: Binding affinity towards 5-hydroxytryptamine 3 receptor
# T4 sequence (P46098 whole entry): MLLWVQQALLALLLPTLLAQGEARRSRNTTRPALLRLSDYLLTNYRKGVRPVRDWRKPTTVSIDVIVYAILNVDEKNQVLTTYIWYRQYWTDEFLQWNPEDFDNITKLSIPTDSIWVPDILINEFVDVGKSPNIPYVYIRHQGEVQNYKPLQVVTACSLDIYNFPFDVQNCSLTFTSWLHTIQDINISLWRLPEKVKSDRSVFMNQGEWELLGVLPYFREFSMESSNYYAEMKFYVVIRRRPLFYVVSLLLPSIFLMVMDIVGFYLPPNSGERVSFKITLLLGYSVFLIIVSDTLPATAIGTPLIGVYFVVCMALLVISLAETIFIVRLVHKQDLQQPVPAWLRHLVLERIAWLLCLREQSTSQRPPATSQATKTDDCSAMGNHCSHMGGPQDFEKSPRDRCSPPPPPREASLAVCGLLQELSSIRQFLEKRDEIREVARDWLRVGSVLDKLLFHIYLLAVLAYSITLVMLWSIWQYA
# [11] = target: T2, 5-hydroxytryptamine receptor 6; experiment: Binding affinity towards human 5-hydroxytryptamine 6 receptor was evaluated using [125I]-2-iodo LSD as radioligand
# [12] = target: T5, 5-hydroxytryptamine receptor 5A (Mus musculus, UniProt P30966); experiment: Binding affinity towards murine 5-hydroxytryptamine 5A receptor
# [13] = target: T5, 5-hydroxytryptamine receptor 5A; experiment: Binding affinity towards mouse 5-hydroxytryptamine 5A receptor was evaluated using [3H]LSD as radioligand
# [14] = Antagonistic activity of compound in cAMP accumulation was evaluated; format: functional
# [15] = Antagonistic activity of compound in 5-HT induced cAMP accumulation; format: functional
# [16] = target: T1, 5-hydroxytryptamine receptor 7; remark: listed apart in the source
# [17] = target: T6, Alpha-1A adrenergic receptor (Homo sapiens, UniProt P35348); experiment: Binding affinity towards alpha-1-adrenergic receptor
# T6 sequence (P35348 whole entry): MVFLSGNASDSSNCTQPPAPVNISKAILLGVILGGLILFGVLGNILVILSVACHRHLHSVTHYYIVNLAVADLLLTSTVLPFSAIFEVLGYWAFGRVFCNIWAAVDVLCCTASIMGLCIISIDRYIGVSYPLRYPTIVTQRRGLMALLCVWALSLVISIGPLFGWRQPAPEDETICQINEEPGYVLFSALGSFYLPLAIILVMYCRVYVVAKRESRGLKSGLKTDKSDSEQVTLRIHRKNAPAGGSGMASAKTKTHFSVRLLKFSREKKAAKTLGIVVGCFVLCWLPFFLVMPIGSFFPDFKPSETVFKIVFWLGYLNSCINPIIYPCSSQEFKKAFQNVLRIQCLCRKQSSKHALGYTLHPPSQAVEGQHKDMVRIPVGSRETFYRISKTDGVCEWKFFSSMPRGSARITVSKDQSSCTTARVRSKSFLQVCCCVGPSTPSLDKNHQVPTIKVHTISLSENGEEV
# [18] = target: T7, Alpha-2A adrenergic receptor (Homo sapiens, UniProt P08913); experiment: Binding affinity towards Alpha-2 adrenergic receptor
# T7 sequence (P08913 whole entry): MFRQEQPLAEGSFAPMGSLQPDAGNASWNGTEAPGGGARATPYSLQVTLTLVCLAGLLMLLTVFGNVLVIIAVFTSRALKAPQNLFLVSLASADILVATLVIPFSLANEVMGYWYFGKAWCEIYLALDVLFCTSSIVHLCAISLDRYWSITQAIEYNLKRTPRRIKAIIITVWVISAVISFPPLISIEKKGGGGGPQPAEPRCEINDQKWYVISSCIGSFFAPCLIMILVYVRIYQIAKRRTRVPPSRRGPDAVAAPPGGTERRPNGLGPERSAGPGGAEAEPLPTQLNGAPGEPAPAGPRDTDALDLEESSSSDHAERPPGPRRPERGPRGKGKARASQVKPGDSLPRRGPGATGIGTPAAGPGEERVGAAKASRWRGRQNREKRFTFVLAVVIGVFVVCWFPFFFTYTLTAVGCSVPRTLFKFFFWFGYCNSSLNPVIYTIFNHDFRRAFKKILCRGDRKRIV
# T5 sequence (P30966 whole entry): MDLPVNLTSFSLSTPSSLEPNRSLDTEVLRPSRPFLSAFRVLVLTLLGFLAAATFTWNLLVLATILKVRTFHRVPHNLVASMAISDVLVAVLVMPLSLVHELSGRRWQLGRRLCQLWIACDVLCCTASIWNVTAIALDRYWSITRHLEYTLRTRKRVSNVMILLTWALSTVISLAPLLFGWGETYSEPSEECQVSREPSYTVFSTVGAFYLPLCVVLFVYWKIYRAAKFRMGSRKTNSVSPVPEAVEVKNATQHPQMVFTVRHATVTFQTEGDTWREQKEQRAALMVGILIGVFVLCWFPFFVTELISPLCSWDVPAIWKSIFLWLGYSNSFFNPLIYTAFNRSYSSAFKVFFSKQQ
# T2 sequence (P50406 whole entry): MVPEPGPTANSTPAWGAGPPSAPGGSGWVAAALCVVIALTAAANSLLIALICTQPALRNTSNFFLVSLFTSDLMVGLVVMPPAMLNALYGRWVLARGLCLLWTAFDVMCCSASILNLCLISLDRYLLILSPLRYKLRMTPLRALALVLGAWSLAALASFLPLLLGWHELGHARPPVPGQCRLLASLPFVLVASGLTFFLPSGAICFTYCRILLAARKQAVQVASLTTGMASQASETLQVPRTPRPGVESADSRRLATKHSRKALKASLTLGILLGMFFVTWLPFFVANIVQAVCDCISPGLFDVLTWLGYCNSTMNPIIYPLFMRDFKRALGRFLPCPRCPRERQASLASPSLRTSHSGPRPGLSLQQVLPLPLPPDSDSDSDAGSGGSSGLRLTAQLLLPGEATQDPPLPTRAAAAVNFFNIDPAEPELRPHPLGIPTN
# T1 sequence (P34969 whole entry): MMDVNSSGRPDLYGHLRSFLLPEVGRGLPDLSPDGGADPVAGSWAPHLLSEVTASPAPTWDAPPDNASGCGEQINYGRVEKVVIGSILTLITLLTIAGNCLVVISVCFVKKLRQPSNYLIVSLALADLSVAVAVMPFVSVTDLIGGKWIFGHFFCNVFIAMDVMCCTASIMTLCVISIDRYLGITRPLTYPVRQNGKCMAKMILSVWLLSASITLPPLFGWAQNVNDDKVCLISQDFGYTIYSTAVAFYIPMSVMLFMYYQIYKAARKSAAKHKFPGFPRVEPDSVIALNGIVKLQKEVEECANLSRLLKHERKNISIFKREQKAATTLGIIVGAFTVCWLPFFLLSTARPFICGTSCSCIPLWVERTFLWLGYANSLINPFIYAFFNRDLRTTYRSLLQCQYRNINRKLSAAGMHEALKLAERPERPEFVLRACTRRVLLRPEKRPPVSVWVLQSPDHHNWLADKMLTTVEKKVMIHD
# 5-hydroxytryptamine receptor 7 (Rattus norvegicus, UniProt P32305), sequence (P32305 whole entry): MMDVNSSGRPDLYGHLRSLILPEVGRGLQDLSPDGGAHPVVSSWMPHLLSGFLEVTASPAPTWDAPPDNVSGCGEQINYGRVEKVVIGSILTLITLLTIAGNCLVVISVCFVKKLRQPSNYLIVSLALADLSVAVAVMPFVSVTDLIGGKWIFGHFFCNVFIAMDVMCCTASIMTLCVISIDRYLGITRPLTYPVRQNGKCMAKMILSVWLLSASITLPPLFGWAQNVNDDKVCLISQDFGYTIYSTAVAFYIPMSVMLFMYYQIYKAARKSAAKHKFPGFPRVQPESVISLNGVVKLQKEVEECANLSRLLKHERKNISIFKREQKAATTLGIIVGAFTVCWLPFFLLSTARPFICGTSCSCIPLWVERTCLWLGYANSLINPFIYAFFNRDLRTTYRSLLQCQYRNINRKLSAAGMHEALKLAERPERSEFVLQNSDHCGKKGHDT
# T3 sequence (P47898 whole entry): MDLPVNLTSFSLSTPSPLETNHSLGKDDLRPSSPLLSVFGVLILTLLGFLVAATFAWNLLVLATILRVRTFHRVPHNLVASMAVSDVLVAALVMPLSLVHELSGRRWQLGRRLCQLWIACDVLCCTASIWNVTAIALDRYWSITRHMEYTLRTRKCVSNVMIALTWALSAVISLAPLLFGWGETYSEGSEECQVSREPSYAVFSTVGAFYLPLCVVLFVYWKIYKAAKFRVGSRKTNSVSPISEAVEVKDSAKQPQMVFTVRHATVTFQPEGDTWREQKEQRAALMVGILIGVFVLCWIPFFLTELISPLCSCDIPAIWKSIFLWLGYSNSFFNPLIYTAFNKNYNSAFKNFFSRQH
structure (smiles),measurement,setting,value
CO[C@@]1(C)c2cccc3c2-c2c1ccc1c2[C@@H](C3)N(C)CC1,Ki,[1],1.1 nM
OCCN1CCN(CCCN2c3ccccc3Sc3ccc(Cl)cc32)CC1 [PERPHENAZINE],Ki,[1],23 nM
CN(C)CC/C=C1/c2ccccc2Sc2ccc(Cl)cc21 [CHLORPROTHIXENE],Ki,[2]; read-out: Ki,5.6 nM
same,Ki,[3],3 nM
CN1CCN(C2=Nc3ccccc3Oc3ccc(Cl)cc32)CC1 [LOXAPINE],Ki,[3],15 nM
CN1CCN(C2=Nc3cc(Cl)ccc3Nc3ccccc32)CC1 [CLOZAPINE],Ki,[4],1000 nM
O=C(CCCN1CCC2(CC1)C(=O)NCN2c1ccccc1)c1ccc(F)cc1 [SPIPERONE],Ki,[4],63000 nM
same,Ki,[5],1590 nM
same,Ki,[3],1590 nM
CNC(=O)Cn1c2c(c3ccccc31)CCN(CCCCC13CCCc4cccc(c41)NC3=O)C2 (stereo not given),Ki,[1],4 nM
same,Ki,[6],> 1000 nM
CNS(=O)(=O)c1ccc2[nH]cc(CCN(C)C)c2c1,Ki,[7],5000 nM
same,Ki,[4],5000 nM
same,Ki,[8],950 nM
same,Ki,[5],2600 nM
Nc1ccc(S(=O)(=O)Nc2cc(Br)cc3[nH]ccc23)cc1,Ki,[3],50 nM
CO[C@]1(C)c2cccc3c2-c2c1ccc1c2[C@@H](C3)N(C)CC1,Ki,[1],1.1 nM
Cc1cn(S(=O)(=O)c2ccc(N)cc2)c2ccccc12,IC50,[9],300 nM
same,Kb,[9]; read-out: pA2 (converted),100 nM
same,Ki,[3],12 nM
COc1cccc2c(CCN(C)C)c[nH]c12,Ki,[3],19600 nM
COc1ccc2c(c1)c(CCN(C)C)cn2S(=O)(=O)c1ccc(N)cc1,Ki,[3],2 nM
O=c1[nH]c2ccccc2n1C1CCN(CCCC(c2ccc(F)cc2)c2ccc(F)cc2)CC1 [PIMOZIDE],Ki,[3],71 nM
CN1CCN(C2=Nc3ccccc3Nc3sccc32)CC1,Ki,[2]; read-out: Ki,104 nM
COc1ccc2[nH]c(C)c(CCN)c2c1,Ki,[10],> 10000 nM
same,Ki,[3],80 nM
Clc1cccc(N2CCNCC2)c1 [CHLOROPHENYLPIPERAZINE],Ki,[11],2300 nM
same,Ki,[12],8700 nM
same,Ki,[13],8700 nM
c1ccc2nc(N3CCNCC3)ccc2c1 [QUIPAZINE],Ki,[12],> 10000 nM
same,Ki,[13],> 10000 nM
CNc1cc(Br)cc(NS(=O)(=O)c2ccc(N)cc2)c1,Ki,[3],20 nM
CNc1cc(NC)cc(NS(=O)(=O)c2ccc(N)cc2)c1,Ki,[3],200 nM
COc1ccc2c(c1)c(CCN(C)C)cn2-c1ccccc1,Ki,[3],33 nM
COc1cccc2[nH]cc(CCN(C)C)c12,Ki,[3],154 nM
O=C1Nc2cccc3c2C1(CCCN1CCN(c2ccccc2)CC1)CCC3 (stereo not given),Ki,[6],16 nM
CN1CCc2ccc3c4c2[C@H]1Cc1cccc(c1-4)[C@H]3N,Ki,[1],13.4 nM
Cc1cccc(S(=O)(=O)N2CCC[C@@H]2CCN2CCC(C)CC2)c1 [SB-258741],Ki,[1],3 nM
COc1ccc(NS(=O)(=O)c2sc3ccc(Cl)cc3c2C)cc1N1CCN(C)CC1,pKb,[14],8.5
COc1ccc2c(c1)c1c(n2S(=O)(=O)c2ccccc2)CCCC1CN(C)C (stereo not given),Ki,[3],1.5 nM
Cc1ccc(S(=O)(=O)n2cc3c4c(cccc42)[C@H](O)[C@@H](N)C3)cc1,Ki,[3],7.2 nM
CN1C[C@H](CNC(=O)OCc2ccccc2)C[C@@H]2c3cccc4[nH]cc(c34)C[C@H]21,Ki,[2]; read-out: Ki,60 nM
same,Ki,[8],6.4 nM
same,Ki,[5],400 nM
C1CCN2CCNCC2C1 (stereo not given),Ki,[3],5 nM
CO[C@H]1c2cccc3c2c(cn3S(=O)(=O)c2ccc(C)cc2)C[C@@H]1N,Ki,[3],130 nM
Cc1[nH]c2ccc(O)cc2c1CCN,Ki,[11],400 nM
same,Ki,[7],> 10000 nM
same,Ki,[13],> 10000 nM
COc1cc(N)c(Cl)cc1C(=O)NC1CN2CCC1CC2 (stereo not given) [ZACOPRIDE],Ki,[7],16000 nM
CNc1cc(NS(=O)(=O)c2ccc(N)cc2)nc(NC)n1,pA2,[15],6.75
COc1ccc2c(c1)c(CCN(C)C)cn2Cc1ccccc1,Ki,[3],6.5 nM
CCc1c(C)[nH]c2c1C(=O)C(CN1CCOCC1)CC2 (stereo not given) [MOLINDONE],Ki,[1],265 nM
CN(C)Cc1cn(S(=O)(=O)c2ccc(N)cc2)c2ccccc12,Ki,[3],6.9 nM
CC1CCN(CC[C@H]2CCCN2S(=O)(=O)c2cccc(O)c2)CC1,pKb,[16],8.3
COc1ccc2c(CCN(C)C)c[nH]c2c1,Ki,[3],8000 nM
CN(C)CCc1cn(S(=O)(=O)c2ccc(N)cc2)c2ccccc12,Ki,[3],0.8 nM
COc1ccc(NS(=O)(=O)c2ccc(Br)cc2)cc1N1CCN(C)CC1,pKb,[14],7.8
NCCc1c[nH]c2ccc(C(N)=O)cc12,Ki,[7],20 nM
same,Ki,[4],20 nM
same,Ki,[5],720 nM
O=C(c1ccc(F)cc1)C1CCN(CCn2c(=O)[nH]c3ccccc3c2=O)CC1 [KETANSERIN],Ki,[7],20000 nM
same,Ki,[4],20000 nM
COc1cc(CC(C)N)c(OC)cc1I (stereo not given),Ki,[7],> 1000 nM
Oc1ccccc1N1CCNCC1,Ki,[12],215 nM
CC1CCCN(CCC(C)N(C)S(=O)(=O)c2cccc3ccccc23)C1 (stereo not given),Ki,[1],32 nM and 125 nM and 65 nM
O=C1Nc2cccc3c2C1(CCCCN1CC=C(c2ccccc2)CC1)CCC3 (stereo not given),Ki,[6],98 nM
Cn1c2c(c3ccccc31)CNCC2,Ki,[12],5300 nM
Cc1c(N=C2NCCN2)cccc1-c1ccccc1,Ki,[17],200 nM
same,Ki,[1],16 nM
same,Ki,[18],19 nM
CN1CCc2cccc3c2[C@H]1Cc1cccc(-c2ccccc2)c1-3,Ki,[1],9.78 nM
C[N+](C)(C)CCc1c[nH]c2ccc(O)cc12,Ki,[7],> 10000 nM
Nc1ccc(S(=O)(=O)Nc2cc(N)nc(Br)c2)cc1,Ki,[3],55 nM
Cc1cccc(C#N)c1-c1cccc2c1-c1cccc3c1[C@@H](C2)N(C)CC3,Ki,[1],20.8 nM and 3.79 nM
O=S(=O)(c1cccc2ccccc12)n1ccc2ccc(N3CCN4CCCC4C3)cc21 (stereo not given),Ki,[3],0.7 nM
CCCN(CCC)C1CCc2cccc(O)c2C1 (stereo not given) [8-OH-DPAT],Ki,[2],150 nM
same,Ki,[5],> 10000 nM
CN1C[C@@H](NS(=O)(=O)N(C)C)C[C@@H]2c3cccc4[nH]cc(c34)C[C@H]21 [DISULERGINE],Ki,[2]; read-out: Ki,21 nM
same,Ki,[1],18 nM
CNc1cc(NS(=O)(=O)c2ccc(N)cc2)nc(N)n1,Ki,[3],1000 nM
CN(C)CCc1cn(S(=O)(=O)c2ccccc2)c2ccccc12,Ki,[3],4.1 nM
CN(C)Cc1cn(S(=O)(=O)c2ccccc2)c2ccccc12,IC50,[9],800 nM
same,Ki,[3],3.1 nM
COc1ccc(NS(=O)(=O)c2sc3ccc(Cl)cc3c2C)cc1N1CCN2CCC[C@H]2C1,pKb,[14],7.7
